Laboratory results taken from PubChem BioAssay AID540258 (Broad Institute, 2011).
Activity calls are given as the source filed them.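 How the source made its calls: active means fitted curve reaching 40% activation at or below the top valid dose tested; inconclusive means flat curve at 30 to 70% activation, or poor fit; inactive means the rest.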

Each compound was assayed on SK-MEL-5 TRPM1 promoter luciferase reporter, 24 h (assay: MITF activators via TRPM1 promoter reporter, dose response, SK-MEL-5 cells, luciferase, cherry-pick samples (AID 540258);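 further: potency for activators that raise TRPM1 promoter luciferase signal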).

SMILES | AC40
CC(=O)c1ccc2c(c1)Cc1cc(C(C)=O)ccc1-2 | 1.19 µM
Cc1ccc(N2NC(C)(c3cccs3)NC2=S)cc1 (configuration not stated) | 1.42 µM
O=c1c2ccccc2oc2c1ccc1ccccc12 | 10.5 µM
Cc1ccn(-c2cccc(-n3ccc(C)n3)n2)n1 | 0.834 µM
CCCCC(=O)Nc1sc2c(c1C#N)CC(C)(C)OC2 | 5.29 µM
O=C(Cc1ccccc1)Nc1ccc2c(c1)OC1(CCCC1)O2 | 3.23 µM
Cc1ccc(C(=O)O/N=C(\N)c2ccc(Br)cc2)cc1 | 7.84 µM
COc1ccc(-c2cn3cccc(C)c3n2)cc1F | 0.565 µM
CSc1cccc(NC(=O)c2cnn3ccccc23)c1 | 1.03 µM
CC(Cc1ccccc1)/[N+]([O-])=C\c1ccc(C(F)(F)F)cc1 (configuration not stated) | 8.22 µM
Nc1ccc(O)c2c(=O)cc(-c3ccccc3Cl)oc12 | 1.13 µM
O=C(Nc1ccccc1)c1ccc(-c2ccccc2)s1 | 0.95 µM
COc1ccc(Oc2nnc(C)c3ccccc23)cc1 | 2.6 µM
COc1ccc(NC(=O)c2ccc3c(c2)OCO3)cc1Cl | 0.642 µM
CCc1ccc(NC(=O)c2n[nH]c(=O)c3ccccc23)cc1 | 1.1 µM
Cc1cccc(-c2cc(N)n(-c3ccccc3)n2)c1 | 0.712 µM
Cn1ccs/c1=N\C(=O)Nc1ccccc1 | 1.59 µM
CCNc1nc(N)nc(Oc2ccc(C(=O)OC)cc2)n1 | 3.64 µM
CCC(C)NC(=O)c1cn(-c2cccc(C)n2)cn1 (configuration not stated) | 10.6 µM
CCc1nc(NC(C)(C)C)c2cnn(-c3ccccc3)c2n1 | 6.25 µM
COc1ccc(C)c2sc(=NC(=O)c3ccc(C(C)=O)cc3)n(C)c12 | 0.119 µM
Cn1c(C(=O)NCCc2c[nH]c3ccccc23)cc2sccc21 | 3.4 µM

SMILES | AC40
COc1ccc(/C(N)=N/OC(=O)c2cccs2)cc1OC | 6.41 µM
O=C(Nc1ccc(OC(F)F)c(Cl)c1)c1ccccn1 | 0.461 µM
O=C(Nc1ccc2oc(-c3ccccc3)nc2c1)c1cccnc1 | 5.22 µM
N#Cc1ccc(C(=O)NC2CCCCCCC2)cc1 | 3.62 µM
Fc1cc(Br)ccc1COc1ccc(-c2nnco2)cc1 | 3.08 µM
COC(=O)c1ccc(/C=N/Nc2nc(C)c(C)s2)cc1 | 1.5 µM
O=S(=O)(c1cccs1)N1CCCc2cccc(O)c21 | 7.11 µM
Cc1ccc2c(c1N)C(=O)c1ccccc1C2=O | 3.96 µM
CCCc1cc(C(=O)Nc2ccc(C(=O)OC)cc2)cs1 | 16.2 µM
O=c1oc2cc(Cl)ccc2n1CSc1nc2ccccc2s1 | 4.25 µM
Cc1ccc(O)c(-n2nc3ccccc3n2)c1 | 1.21 µM
Cc1ccnc(NC(=O)C2CC(=O)N(Cc3ccccc3)C2)c1 (configuration not stated) | 5.34 µM
Clc1ccc(-c2cnnc(-c3ccccn3)n2)cc1 | 1.71 µM
CCCNC(=O)Nc1nc2ccccc2s1 | 0.513 µM
O=C1CCCc2nc3c(cc21)C(O)Oc1c-3ccc2ccccc12 (configuration not stated) | 1.52 µM
Cc1cccnc1NC(=O)Nc1cccc(Cl)c1 | 2.56 µM
CSc1nc2ccc(NC(=O)c3cccs3)cc2s1 | 2.16 µM
CN(c1ccc(O)cc1)c1nc(O)c(C2=c3ccccc3=NC2=O)s1 | 8.06 µM
Fc1ccc2nc(N3CCCC3)sc2c1 | 1.37 µM
O=C(Nc1ccc(Br)cc1F)c1ccc2nsnc2c1 | 1.31 µM
Cc1cccc(OCc2nc(-c3nonc3N)no2)c1C | 3.81 µM
COc1cccc2[nH]c(=O)c(-c3ccccc3)cc12 | 1.72 µM

SMILES | AC40
O=C(Cc1ccc(O)cc1)NC1CCCCCC1 | 10.6 µM
COc1ccc2ccccc2c1/C=N/Nc1cccc(C(=O)O)c1 | 13.1 µM
COc1ccc(/C=N/Nc2snc(SC)c2C#N)cc1OC | 4.29 µM
O=C(Nc1ccc(NC(=O)c2ccccc2F)cc1)c1cccs1 | 4.26 µM
CCCCN1C(=O)/C(=C2\SC(N3CCCCC3)=NC2=O)c2ccccc21 | 3.23 µM
Cc1ccc(-n2nnc3ccccc3c2=O)cc1C | 2.62 µM
COc1cc(/C=C2\SC(=S)N(Nc3ccccc3)C2=O)ccc1O | 3.01 µM
CC(C)(C)c1cc(NC(=O)Nc2ccccc2)no1 | 0.864 µM
COc1ccc2c(c1)oc(=O)c1cc(OC)ccc12 | 3.88 µM
COc1ccc(-c2ccc3oc(-c4ccsc4)cc(=O)c3c2)cn1 | 1.79 µM
O=C1C(=O)N(c2ccccc2)P(=O)(N(CCCl)CCCl)N1c1ccccc1 | 16.1 µM
CCC(=O)N1CCc2nc(-c3ccccc3)sc2C1 | 6.73 µM
COc1ccc(-c2noc(-c3cccc(OC)c3OC)n2)cc1OC | 1.33 µM
CC(=O)c1cnc2c(-c3cccc(Br)c3)cnn2c1C | 13.2 µM
Cc1csc(NC(=O)Cc2c[nH]c3ccccc23)n1 | 27.3 µM
COc1ccc(/C=N/Nc2nccnc2Cl)c(OC)c1 | 2.68 µM
N#C/C(=N\Nc1ccccc1F)C(=N)N1CCCCC1 | 2.13 µM
Nc1c(-c2ccc(Cl)cc2)cnn1-c1ccccc1 | 1.84 µM
Cc1cc2cc(OCc3ccccc3)ccc2n1C | 0.737 µM
CC(NS(=O)(=O)c1cccc(Cl)c1)C(=O)Nc1ccc(-c2nc3ccccc3s2)cc1 (configuration not stated) | 6.96 µM
COc1ccc(C2=NN(c3ccccc3)C(c3ccc(OC)c(OC)c3)C2)cc1 (configuration not stated) | 25.6 µM
CCCc1cc2c(=O)c(-c3ccccn3)coc2cc1OC | 1.81 µM

SMILES | AC40
CCCCSc1nsc(NC(C)=O)n1 | 1.28 µM
CCn1c(C(=O)OC)cc2c1ccn2-c1ccc(F)cc1 | 2.94 µM
CC1CCC(NC(=O)c2ccc(NS(=O)(=O)c3ccc4[nH]c(=O)[nH]c4c3)cc2)CC1 (configuration not stated) | 25.1 µM
C/C(=N\O)c1ccc(N2C(=O)C3CC=C(Cl)CC3C2=O)cc1 (configuration not stated) | 3.5 µM
COc1ccc(/C(C)=N/Nc2nncc3ccccc23)cc1 | 0.58 µM
CC(C)c1ccc(N=C2NN=C(c3cccs3)CS2)cc1 | 0.547 µM
Nc1ccccc1N=Nc1ccccc1N | 27 µM
Nc1nc(-c2cc(-c3ccccc3)no2)cs1 | 0.331 µM
O=c1c2ccccc2oc2cc(NCCCn3ccnc3)ccc12 | 0.989 µM
COC(=O)c1ccc2[nH]c(C3(O)CCCCC3)c(C)c2c1 | 10.3 µM
Cc1cccc(-n2ncc3c(N4CC(C)CC(C)C4)ncnc32)c1 (configuration not stated) | 0.749 µM
CCc1ccc(NC(=O)c2ccc3nc(N)sc3c2)cc1 | 5.39 µM
c1ccc2nc(-c3nccs3)ccc2c1 | 8.94 µM
CC(=O)Nc1ccc2c(c1)ncn2-c1ccccc1 | 2.76 µM
CC(C)(C)n1ncc2c(=O)n(CC(=O)c3ccccc3)cnc21 | 2.87 µM
COc1ccc(NC(=O)CN(C)C(=O)CNC(=O)c2sc3ccccc3c2Cl)cc1 | 7.78 µM
C/C(=N/OCc1ccc(Br)cc1)c1ccccn1 | 0.336 µM
O=C(CC(Nc1ccccc1)C(=O)O)c1ccccc1 (configuration not stated) | 0.749 µM
O=C(Nc1ccc(F)cc1Cl)c1ccc2c(=O)n3c(nc2c1)CCC3 | 3.5 µM
Nc1nc2ccccc2cc1-c1cccs1 | 6.26 µM
CC(=O)c1cccc(OCc2cc(C(=O)N(C)Cc3cnccn3)no2)c1 | 9.27 µM
Cc1ccsc1/C=N/NC(=O)Nc1ccccc1 | 1.07 µM

SMILES | AC40
c1ccc(-c2nc(-c3nccc4ccccc34)oc2-c2ccccc2)cc1 | 3.61 µM
O=C(c1ccc(F)cc1)c1ccc(N2CCCCC2)cc1 | 1.49 µM
Cc1cc(NC(=O)c2ccc(Cl)cc2)no1 | 2.63 µM
Cc1nn(C(=O)c2cccs2)c(N)c1-c1ccccc1 | 1.38 µM
Cc1nc2c3cnn(-c4ccc(C)c(C)c4)c3ncn2n1 | 0.921 µM
Cc1ccc(NCCC(=O)c2cccs2)cc1C | 6.77 µM
O=C(O)c1ccccc1N/N=C/c1cc(Br)cc(Br)c1O | 4.58 µM
CC(C)(C)C(=O)N1CCN(c2nc3ccccc3s2)CC1 | 1.86 µM
COc1cc(/C=C/c2nc3ccccc3c(=O)[nH]2)ccc1OC(F)F | 0.98 µM
Clc1ccccc1OCc1nnc(-c2ccccc2Br)o1 | 2.43 µM
[O-]/[N+](=C\C=C\c1ccccc1)c1ccccc1 | 1.68 µM
Cc1ccc(NC(=O)Nc2ccc3oc(C)nc3c2)cc1 | 1.39 µM
CCS(=O)(=O)N1CCN(c2nc(-c3ccccc3)cs2)CC1 | 33.3 µM
CN(CC(=O)Nc1ccccc1Br)C(=O)c1cc2c(s1)CCCCC2 | 3.4 µM
CCCSc1ccc(C(=O)Nc2ccc(F)cc2F)cn1 | 27.2 µM
Cc1ccc(C(=O)Nc2cccc(O)c2)cc1S(=O)(=O)N1CCCCCC1 | 8.12 µM
CCCCN1C(=O)/C(=C/C=C2\SCCN2C)SC1=S | 5.57 µM
Clc1cnc(N/N=C/c2cccs2)c(Cl)c1 | 3.62 µM
COc1ccc(COc2ccc3ccc(=O)oc3c2)cc1 | 1.21 µM
COc1ccccc1-c1cnn2c(NC3CCCC3)cc(C)nc12 | 4.09 µM
C=CCC1(CC=C)CCCN1C(=O)C1CCC(=O)N(CCc2ccccc2)C1 (configuration not stated) | 7.52 µM
CCCCc1ccc(Nc2ncnc3nc[nH]c23)cc1 | 3.37 µM

SMILES | AC40
C(=C\c1nnc(-c2cccs2)o1)/c1ccccc1 | 0.734 µM
Nc1c(C(=O)C2CC2)sc2nc3c(cc12)CCC3 | 1.92 µM
c1ccc(-n2nnc(-c3cccnc3)n2)cc1 | 8.4 µM
COc1ccc2c(c1OC)C(=O)OC2Nc1nc(-c2cc3cc(Br)ccc3oc2=O)cs1 (configuration not stated) | 0.915 µM
CCn1c(COc2ccccc2C)nc2ccccc21 | 9.77 µM
c1ccc(-c2cnnc(N3CCCCC3)n2)cc1 | 0.992 µM
Cc1ccc(N(C)/N=C/c2ccc(Cl)cc2Cl)nn1 | 34.2 µM
CC(C)c1ccc(CNc2ncc(Br)cn2)cc1 | 3.76 µM
CCn1c(C)nc2cc(C(=O)N/N=C(\C)c3ccccc3O)ccc21 | 3.48 µM
CCN(CC)c1ccc(Nc2nc(-c3cccnc3)cs2)cc1 | 2.64 µM
CC1CCc2nc(NC(=O)Cc3cccs3)sc2C1 (configuration not stated) | 2.63 µM
CCc1cccc(NC(=O)c2sc3nc4n(c(=O)c3c2C)CCC4)c1 | 4.55 µM
O=C(Nc1ccc2c(c1)OCO2)c1cc(-c2ccccc2Cl)on1 | 2.06 µM
CC1CCN(C(=O)Nc2ccc3nsnc3c2)CC1 | 13.7 µM
c1ccn(-c2ccc(-c3ccn[nH]3)cc2)c1 | 2.31 µM
CC1(C)CN=c2s/c(=C\c3ccc(Cl)cc3)c(=O)n2C1 | 1.21 µM
COc1cccc(C(=O)Nc2nnc(-c3ccccc3)s2)c1 | 3.57 µM
C/C(=N\OCc1ccc(C#N)cc1)c1ccc(S(=O)(=O)N(C)C)cc1 | > 35 µM (inactive)
COc1cccc(/C(C)=N/N=C(\C)c2cccc(OC)c2)c1 | 3.27 µM
CC(C)C[C@@H](CSc1ccccc1)N1CCN(CC(C)C)CCC1=O | 4.58 µM
COc1ccc(NC(C)=O)cc1S(=O)(=O)Nc1ccccc1C(=O)NCCc1ccccc1 | > 35 µM (inactive)
Cc1cc2ncc(-c3ccc(Cl)cc3)c(N)n2n1 | > 35 µM (inactive)
